pIC50: −log10 of the molar value. ≈ marks a conversion by molar mass, not a printed value. Like-named read-outs stand apart in the source and are kept apart here. Values belong to the compound of their own block, whether it stands above or below them.
Columns and labels:
[1] = tested on: MiaPaCa-2 cells; assay: Cytotoxicity assay, cell proliferation (Alamar Blue); type: cell-based; details: Homo sapiens, MIA PaCa-2, 72 h
Procedure: (§1) Cell Culture Protocol:— 1) Protocol for Reviving Cell Line(s) • 1. Take out the cell vials from LN2 container & thaw immediately at 37° C. • 2. Wipe it with 70% alcohol properly • 3. Transfer to sterile centrifuge tubes containing 9 ml media & spin at 1000 rpm for 5 min. • 4. Discard the supernatant & resuspend the pellet in 2-3 ml media and transfer to T-75 or T-150 culture flasks containing 15 or 30 ml media respectively. • 5. Incubate at 37° C.-5% CO2. 2) Protocol for Sub-Culturing Cell Line(s)
(§2) Cells should be sub-cultured when they reach 70-80% confluence. • 1. Discard the media from cell culture flask. • 2. Add 3 to 4 ml of TrypLE Express dissociation solution; keep in CO2 incubator for ˜5 min. Mix gently to avoid cell clumping. • 3. Add 4.0 to 5.0 ml of complete growth medium and mix gently & transfer to centrifuge tube. • 4. Centrifuge at 1000 rpm for 5 min. • 5. Discard the supernatant & re-suspend the pellet in 3-4 ml of media. • 6. Count the cells in cell counter or using hemocytometer. • 7. Split the cells in 1:2 or 1:4 ratio into new culture flasks. • 8. Incubate cultures at 37° C.-5% CO2 to get confluence 3) Protocol for Preserving Cell Line(s) • 1. Discard the spent media from the TC flask. • 2. Add 3 to 4 ml of TrypLE Express dissociation solution; keep in CO2 incubator for ˜5 min. Mix gently to avoid cell clumping. • 3. Add 4.0 to 5.0 ml of complete growth medium and mix gently & transfer to centrifuge tube. • 4. Centrifuge at 1000 rpm for 5 min. • 5. Discard the supernatant & re-suspend the pellet in 3-4 ml of media. • 6. Count the cells in cell counter or using hemocytometer. • 7. Spin at 1000 rpm for 5 min, discard the supernatant and re-suspend the pellet in 900 μl of media+100 μl of DMSO (Freeze app. 1.5 to 3 million cells/vial). • 8. Keep the vials in −80° C. overnight & transfer to LN2 container. Cell Proliferation (Alamar Blue) Assay:— • Seed cells at 2000 cells in 100 μL/well in 96-well tissue culture plate. Leave outer wells without cells for background measurements. Incubate at 37° C./5% CO2 for 16-18 hours. • Add 10× concentration compound dilution or DMSO control so that the final concentration is 1× and DMSO concentration 0.5%. Compound is prepared in 3-fold serial dilutions. Incubate for 72 h at 37° C./5% CO2. • Add Alamar Blue™ reagent to each well with multi-channel pipette and tap gently on each side of the plate to mix. Incubate for 3 hours at 37° C./5% CO2. • Read plates on fluorescence reader (Tecan i-control, 1.11.1.0, Device: infinite 200, Serial number: 810001990) at 540 nm excitation, 590 nm emission wavelength. • Data analysis using Graph pad prism Assay Acceptance Criteria • S/N Ratio should be >3. • Z′ should be >0.4

[2] = tested on: A375 cells; assay: as above; type: cell-based; details: Homo sapiens, A-375, 72 h
Procedure: (§3) Media Preparation Protocol:— • Media composition for cell preservation (4 ml): 900 μl of Hi-FBS+[…] of DMSO Complete Media Preparation (500 ml): For DLD1n& A375:
as §1, §2

[3] = tested on: DLD-1 cells; assay: as above; type: cell-based; details: Homo sapiens, 72 h
Procedure: as §3, §1, §2

[4] = Buffer stability in phosphate buffered saline; type: physicochemical; details: PBS pH 7.4, 3 μM, 37° C.
Procedure: Assay Procedure: • 1. Test compound was prepared at 3 mM in DMSO from 10 mM working stock. • 2. The experiment was conducted in Phosphate buffered saline with a final concentration of 3 μM. • 3. The vials were incubated at 37° C. in a hybridization oven for respective time points. • 4. After incubation time, equal volumes of quenching solution was added. • 5. Samples were centrifuged at 14,000 rpm for 5 min at 4° C. • 6. Supernatant was transferred into vials and analyzed in HIPLC.

[5] = Kinetic solubility across pH (PBS pH 7.4, FaSSGF pH 1.6, FaSSIF pH 6.5); type: physicochemical; details: kinetic from dmso stock
Procedure: Kinetic solubility method was used to determine the solubility of NCEs across pH ranges, PBS pH 7.4, FaSSGF pH 1.6 & FaSSIF pH 6.5.
Procedure • 1. Seven calibration standards (i.e. 1, 5, 10, 50, 100, 200 and 300 μM) were prepared in DMSO from the 20 mM primary stock solution. • 2. Dispensed an aliquot of 198 IL of 0.001 M PBS into duplicate wells of a multiscreen solubility filter plate. • 3. Subsequently, added 2 μL of test compound solution (20 mM primary stock solution), cover the plate and shake at 150 rotations per minute for 90 minutes. • 4. At the end of 90 minutes, samples were filtered using MultiScreen HTS vacuum Manifold assembly and the filtrate was collected into the acceptor plate. • 5. An aliquot of 150 μL of filtrate from the above 96-well acceptor plate was transferred into HIPLC vials and analyzed by HIPLC-UV.

[6] = Blood partitioning (blood to plasma ratio); type: in vitro ADME; details: fresh pooled whole blood, fresh mouse blood, 37° C., read-out: Mice blood to plasma ratio
Procedure: Blood to plasma ratio defines the concentration of a drug in whole blood (that is, target drug containing both erythrocytes and plasma) to the concentration of target drug in plasma. The red blood cell partition coefficient is the ratio of the concentration of drug in the red blood cells (that is, not including plasma) to concentration of drug in plasma.
Assay Procedure: • 1. Fresh blood was collected. • 2. An aliquot of 50 μL blood was taken from individual tubes and centrifuged to check for any haemolysis. Tube with haemolysed blood was not considered for experiment. • 3. Non-haemolysed blood in individual tubes was pooled and incubated at 37° C. • 4. 999 μL aliquot of pooled blood was taken in individual tubes. One of these tubes was designated for Chloroquine (positive control). Incubations for the test compound were similarly done in other aliquot. • 5. 1 μL of test compound (0.1% DMSO concentration) or positive control solution was spiked into each of the above tubes. • 6. Above tubes were incubated at 37° C. for 30 min. • 7. Post incubation, an aliquot (˜50 μL) was taken and centrifuged to check for haemolysis. • 8. Subsequently, 100 μL of blood sample from the incubation mixture tube was transferred into a separate labeled tube and quenched with 200 μL of Acetonitrile containing Internal standard. • 9. […]

[7] = Plasma stability; type: in vitro ADME; details: 3 μM, 37° C.
Procedure: Stability of drug assessed in plasma to determine the percent remaining and half-life of the compound.
Assay Procedure: • 1. Fresh blood was collected in tubes containing anticoagulant (K2 EDTA) and the plasma collected by centrifugation. • 2. 3 mM of the test compound was prepared in DMSO from 20 mM main stock. • 3. 1 μL of test compound (3 mM) was incubated at 37° C. in 999 μL of plasma (3 μM final concentrations, 0.1% DMSO, final volume 1,000 μL). • 4. The reactions were terminated at 0, 30, 60 and 120 min by addition of two volumes of acetonitrile, containing IS (200 ng/mL) resulting in protein precipitation. • 5. After termination of reaction at individual time points, the samples were stored at −80±10° C. till the completion of experiment. • 6. On completion of last incubation point, all the samples were centrifuge at 14,000 rpm for 10 min. • 7. Supernatant (200 μL) from each reaction tube was taken for LC-MS/MS analysis.

[8] = average of N1 and N2, read-out: Average pIC50 (n = 2) (converted)
[9] = replicate N1, read-out: IC50 N1
[10] = replicate N1, read-out: pIC50 N1 (converted)
[11] = replicate N2, read-out: IC50 N2
[12] = replicate N2, read-out: pIC50 N2 (converted)

SMILES: CCN(CC)CCCC(C)Nc1c2ccc(Cl)cc2nc2ccc(OC)cc12 (stereo not drawn) [Quinacrine]
- IC50 [1, 8]: 2510 nM
- pIC50 [1, 9]: 5.57
- IC50 [1, 10]: 2690 nM
- pIC50 [1, 11]: 5.63
- IC50 [1, 12]: 2340 nM
- IC50 [2, 8]: 2240 nM
- pIC50 [2, 9]: 5.89
- IC50 [2, 10]: 1290 nM
- pIC50 [2, 11]: 5.42
- IC50 [2, 12]: 3800 nM
- IC50 [3, 8]: 4370 nM
- pIC50 [3, 9]: 5.60
- IC50 [3, 10]: 2510 nM
- pIC50 [3, 11]: 5.12
- IC50 [3, 12]: 7590 nM

SMILES: COc1cccc2c1C(=O)c1c(O)c3c(c(O)c1C2=O)C[C@@](O)(C(=O)CO)C[C@@H]3O[C@H]1C[C@H](N)[C@H](O)[C@H](C)O1 [Doxorubicin]
- IC50 [1, 8]: 89.1 nM
- pIC50 [1, 9]: 7.00
- IC50 [1, 10]: 97.7 nM
- pIC50 [1, 11]: 7.10
- IC50 [1, 12]: 81.3 nM
- IC50 [2, 8]: 28.2 nM
- pIC50 [2, 9]: 7.70
- IC50 [2, 10]: 24.5 nM
- pIC50 [2, 11]: 7.52
- IC50 [2, 12]: 31.6 nM
- IC50 [3, 8]: 380 nM
- pIC50 [3, 9]: 6.60
- IC50 [3, 10]: 245 nM
- pIC50 [3, 11]: 6.23
- IC50 [3, 12]: 589 nM

- PBS pH 7.4 stability (% remaining @120 min) [4]: 100%
- solubility at 90 min ([5]; aqueous buffer, PBS pH 7.4, 90 minutes shaking, read-out: PBS pH 7.4 solubility): 39 µM (≈ 26.9 µg/mL)
- solubility at 90 min ([5]; fassgf or other biorelevant, FaSSGF pH 1.6, 90 minutes shaking, read-out: FaSSGF pH 1.6 solubility): ~200 µM (≈ 138 µg/mL)
- solubility at 90 min ([5]; FaSSIF pH 6.5, 90 minutes shaking, read-out: FaSSIF pH 6.5 solubility): 62 µM (≈ 42.7 µg/mL)
- blood plasma ratio at 30 min [6]: 12.6
- Mouse plasma stability (% remaining @ 120 min) [7]: 88%
SMILES: COc1ccc2nc3cc(Cl)ccc3c(NCCOCCN(C)CCOCCNc3c4ccc(Cl)cc4nc4ccc(OC)cc34)c2c1 [Dioxo-DQ-551]
- IC50 [1, 8]: 174 nM
- pIC50 [1, 9]: 6.82
- IC50 [1, 10]: 151 nM
- pIC50 [1, 11]: 6.68
- IC50 [1, 12]: 204 nM
- IC50 [2, 8]: 794 nM
- pIC50 [2, 9]: 6.36
- IC50 [2, 10]: 447 nM
- pIC50 [2, 11]: 5.84
- IC50 [2, 12]: 1450 nM
- IC50 [3, 8]: 708 nM
- pIC50 [3, 9]: 6.48
- IC50 [3, 10]: 324 nM
- pIC50 [3, 11]: 5.81
- IC50 [3, 12]: 1550 nM

Reference: US12343339B2, “Bisaminoquinolines and bisaminoacridines compounds and methods of their use” (THE TRUSTEES OF THE UNIVERSITY OF PENNSYLVANIA, priority 2019, dated 2025)
